Experiments:
cancer cells = experiment: Combined TAF10 inhibition and oxaliplatin: confluence, PI staining, FACS cell death; assay type: cell-based
Protocol: (§1) Infected cells were inoculated in a 96-well plate (6×10^3 cell/well) to measure the cell growth and the cell growth was recorded every 3 hours using IncuCyte ZOOM (Essen Bioscience), and cell confluence was analyzed using IncuCyte ZOOM 2016A software.
Meanwhile, an increase in the cancer stemness of cancer cells may also cause increased resistance of cancer cells to anticancer agents. Therefore, a colorectal cancer animal model in which TAF10 was inhibited or not was treated with the anticancer agent, oxaliplatin (1 μM concentration) and its therapeutic effect was confirmed.
In addition, as a result of staining cells by treating a PI solution capable of confirming cell death, it was confirmed that proliferation was suppressed when TAF10 was inhibited, and that the number of dying cells increased when treated with oxaliplatin along with TAF10 inhibition (FIG. 9B).
In addition, the degree of cell death through PI and 7-AAD was confirmed through FACS. In this regard, Q1 means NECROSIS, Q2 means LATE APOPTOSIS, Q3 means EARLY APOPTOSIS, and Q4 means live cells. The degree of cell death may be determined by increasing the ratio of Q2. As a result, it was confirmed that the ratio of Q2 increased when TAF10 was inhibited and oxaliplatin was combined, so that it was confirmed that cell death increased (FIG. 9C).

HCT116 [1] = experiment: Combined TAF10 inhibition and oxaliplatin in colorectal cancer-inducing animal model; assay type: in vivo, Nude mice
Protocol: First, TAF10 WT (wild type) and TAF10 knockdown (KD) cells were prepared in the same manner as in Experimental Example 1-3 using shRNA consisting of a base sequence represented by SEQ ID NO: 7 in HCT116, which was a colorectal cancer cell line. 2×10^6 of TAF10 WT or TAF10 KD was prepared and subcutaneously injected into Nude mice deficient of an immune system. Tumor occurrence was confirmed every two days, and its size was measured. In addition, in order to confirm the effect of combined treatment with anticancer agents, the colorectal cancer-inducing animal model prepared in the same manner as before was divided into four experimental groups, and after 2 weeks (14 days) when the tumor had formed to some extent, a control group was administered with PBS and in the experimental group, oxaliplatin was injected into the abdominal cavity at a concentration of 10 mg/kg every two days.
In addition, the combined effect in vivo was confirmed using a colorectal cancer-inducing animal model prepared by subcutaneously injecting HCT116 in which TAF10 was inhibited or HCT116 in which TAF10 was not inhibited. From two weeks after the tumor in each experimental group was formed, WT and KD were divided into two experimental groups. […]

HCT116 [2] = experiment: qRT-PCR gene expression upon TAF10 inhibition; assay type: cell-based
HCT116 [3] = experiment: Western blot protein expression upon TAF10 inhibition; assay type: cell-based
Protocol: Cellular proteins were dissolved and extracted on ice in a lysis buffer (20 mM HEPES (pH 7.2), 150 mM NaCl, 0.5% Triton X-100, 10% glycerol, 0.1% SDS) containing 0.1% protease inhibitor and phosphatase inhibitor cocktail (Thermo-scientific, USA). The proteins were separated through protein electrophoresis (10% gel) and transferred to a PVDF membrane. For Western blot, an anti-TAF10 (ab263967) antibody was purchased from Abcam, anti-AKT1 (2938S), anti-phosphoAkt (2965S), anti-phospho B-raf (#2696), anti-MEK1/2. (#9122), anti-phosphoERK1/2 (#9106), anti-STAT3 (#9139), and anti-phosphoSTAT3 (#9131) antibodies were purchased from Cell signaling, and anti-phospho m-TOR (sc-293133), anti-phosphoMEK1/2 (sc-81503), anti-CyclinE1 (sc-247), anti-CDK2 (sc-6248), and anti-VEGF (sc7269) antibodies were purchased and used from Santacruz. A rabbit polyclonal anti-GAPDH antibody was provided and used from the Korea Research Institute of Bioscience and Biotechnology. The expression of each protein band was confirmed using an enhanced chemiluminescence (ECL) solution.
Through Example, it was confirmed that the TAF10 inhibition suppressed the growth of HCT116, a colorectal cancer cell line. […]

HCT116 [4] = experiment: Cell growth (IncuCyte confluence) after siRNA transfection; assay type: cell-based; details: HCT116, siRNA 30 nM, FIG. 2A
Protocol: (§2) Transfection reagents RNAiMAX (Thermo Fisher Scientific) and siRNA (BIONEER Corporation, Daejeon, South Korea) were mixed in an Opti-mem medium at a final concentration of 30 nM. Target cells were cultured with the mixture, and then cells were harvested for RNA extraction after 72 hours of siRNA transfection.
The used siRNAs siNPM1, siTAF10, and siZNHIT1 were as follows. • (SEQ ID NO: 1) siTAF10-SENSE: GUGAAGAAGCCGCACUACU • (SEQ ID NO: 2) siTAF10-ANTISENSE: AGUAGUGCGGCUUCUUCAC • (SEQ ID NO: 3) siNPM1-SENSE: […] GA • (SEQ ID NO: 4) siNPM1-ANTISENSE: […] UC • (SEQ ID NO: 5) siZNHIT1-SENSE: GAGACUGCCUCAGUUUGAU • (SEQ ID NO: 6) siZNHIT1-ANTISENSE: AUCAAACUGAGGCAGUCUC 1-3. Transfection and Transduction of shRNA
as §1
Based on those confirmed in Example 1, NPM1, TAF, or ZNHIT1 of the colorectal cancer cell line HCT116 was inhibited as in Experimental Example 1-2, and its growth ability was confirmed. […] In addition, as a result of confirming overall survival probability when TAF10 is inhibited in The Cancer Genome Atlas (TCGA) as a large-scale cancer database, it was confirmed that the survival probability was increased (see FIG. 2B). […]

HCT116 [5] = experiment: Senescence b-galactosidase staining; assay type: cell-based; details: HCT116, FIG. 5C
HCT116 [6] = experiment: Cell cycle by FACS (PI staining); assay type: cell-based; details: HCT116, FIG. 5B
Protocol: The cells were treated with trypsin-EDTA, separated into single cells, washed twice with PBS, and fixed with 70% ethanol for 1 hour at −20° C. After washing again with PBS twice, the cells were treated with 20 μg/ml of RNase A, and flow cytometry analysis was performed through 20 μg/ml of propidium iodide (PI) staining.
(§3) Through Example, it was confirmed that the TAF10 inhibition suppressed the growth of HCT116, a colorectal cancer cell line. As a result, the expression genes and proteins related with the growth rate and cell growth and the expression of genes and proteins related to cell cycle arrest were confirmed according to TAF10 inhibition (using siRNA) in HT29 and CACO2 colorectal cancer cell lines, which were other colorectal cancer cell lines. In addition, the cell cycle was confirmed according to TAF10 inhibition, and whether there was an increase in senescent cells was confirmed. The senescent cells were confirmed by staining the senescent cells using a senescence b-galactosidase staining kit (Cell signaling).

CACO2 = experiment: Growth rate of colorectal cancer cell line upon TAF10 inhibition (siRNA); assay type: cell-based; details: FIG. 4A
Protocol: as §2, §1, §3

HT29 = experiment: as above; assay type: cell-based; details: FIG. 4A
Protocol: as §2, §1, §3

Compound	effect of TAF10 inhibition on the anticancer effect of oxaliplatin (cancer cells; FIG. 9)	cancer confluence (cancer cells; TAF10 inhibited and oxaliplatin 1 μM, FIG. 9A)	ratio of Q2 (LATE APOPTOSIS), FACS PI and 7-AAD (cancer cells; TAF10 inhibited and oxaliplatin combined, FIG. 9C)	number of dying cells (PI staining) (cancer cells; oxaliplatin along with TAF10 inhibition, FIG. 9B)	tumor size (HCT116 [1]; TAF10 KD HCT116, oxaliplatin 10 mg/kg once every two days, after 44 days, FIG. 9E)	tumor size (tumor volume over time) (HCT116 [1]; TAF10 inhibited and oxaliplatin, FIGS. 9D and 9E)	expression of genes TP53, CDKN1A, and CXCL8 related to cell cycle arrest (HCT116 [2]; FIG. 5A)	expression of genes MKI167, PCNA, and MCM7 related to cell growth (HCT116 [2]; HCT116, FIG. 4B)	expression of proteins Cyclin E1 and CDK2 related to cell cycle arrest (HCT116 [3]; FIG. 5A)	expression of proteins tAkt1, pAkt, pGSK-3β, m-TOR, pB-raf, tMEK1/2, pMEK1/2, and pERK1/2 (HCT116 [3]; HCT116, FIG. 4B)	cell proliferation (HCT116 [4])	number of senescent cells (HCT116 [5])	cell cycle (HCT116 [6])	growth rate (CACO2)	growth rate (HT29)
O=C1[O][Pt]2([NH][C@@H]3CCCC[C@H]3[NH]2)[O]C1=O [oxaliplatin]	synergistic effect	significantly reduced	increased	increased	significantly reduced	significantly reduced									
siTAF10: siRNA targeting TAF10; sense GUGAAGAAGCCGCACUACU (SEQ ID NO: 1), antisense AGUAGUGCGGCUUCUUCAC (SEQ ID NO: 2) (listed as RNA, chemistry not given here)							increased	reduced	increased	reduced	significantly reduced	increased	arrested	reduced	reduced
